{"source": "patent US3973021A", "about": "“2-[2-(5-Nitro-2-furyl)vinyl]-4-(phydroxyanilino)quinazoline as a bactericide” (Diamond Shamrock Corporation, priority 1975, dated 1976)", "key": {"[1]": {"experiment": "Example VIII: 4 week chick feeding test at low levels", "format": "in vivo, broiler cross chicks", "conditions": "4 g/T in Basal Ration", "excerpt": "Day old broiler cross chicks were weight equalized into groups of 8 chicks each and were placed in battery brooders. The 32 chick treatment groups (4 replicates) were fed one of the five rations described below for a four week period. Weekly measurements of body weights and feed consumption were made by replicate, and these measurements used to calculate weight gain and feed efficiency.\nThe basal ration was the basal ration used in Example VII above. The remaining five rations wer obtained by mixing the indicated quantities of bacitracin (4 g/T), chlortetracycline (10 g/T), product of Example I (10 g/T), and product of Example II of U.S. Pat. No. 3,542,784 -- Burch (10 g/T) as growth promotants with the basal ration."}, "[2]": {"experiment": "Example XI: 4 week chick feeding test, five replicates", "format": "in vivo, broiler cross chicks", "excerpt": "This example compares growth promotion activity of the product of Example I with other growth promotants at a concentration of 25 g/T in the Basal Ration described in Example VII. The other growth promotants include the product described in Example I of U.S. Pat. No. 3,542,784 -- Burch and quinoxaline-1,4-dioxide. Day old broiler cross chicks were weight equalized into groups of 8 chicks each, and four replicates of 8 chicks each were fed the experimental rations over a 4 week period.\nThe growth promotion tests described in Example X were repeated with the exception that fives replicates of 8 chicks each were fed the formulations described in Table V for four weeks."}}, "note": "Positions of bridges follow the written chain, without caps; N, C: chain ends. Non-standard residues stand in square brackets, D forms with d. Residues, ends and D or L forms follow the SMILES beside them. *: point of attachment. Ileψ(thiazoline)Cys = CC[C@H](C)[C@H](N)C1=N[C@H](C(=O)*)CS1; dOrn = NCCC[C@@H](N)C(=O)O"}
{"smiles": "CC[C@H](C)[C@H](N)C1=N[C@H](C(=O)N[C@@H](CC(C)C)C(=O)N[C@H](CCC(=O)O)C(=O)N[C@H](C(=O)N[C@H]2CCCCNC(=O)[C@H](CC(N)=O)NC(=O)[C@@H](CC(=O)O)NC(=O)[C@H](Cc3cnc[nH]3)NC(=O)[C@@H](Cc3ccccc3)NC(=O)[C@H]([C@@H](C)CC)NC(=O)[C@@H](CCCN)NC2=O)[C@@H](C)CC)CS1", "note": "[Bacitracin] ({Ileψ(thiazoline)Cys}-L[dE]IK[dOrn]I[dF]H[dD]N; lactam 4-C)", "values": [{"measurement": "Improved Response Over Basal Ration: Feed Efficiency", "setting": "[1]", "value": "+1.2%"}, {"measurement": "Improved Response Over Basal Ration: Gain", "setting": "[1]", "value": -2.3, "unit": "%"}, {"measurement": "Improved Response Over Basal Ration: Feed Efficiency", "setting": "[2]; 25g/T", "value": "+3.1%"}, {"measurement": "Improved Response Over Basal Ration: Gain", "setting": "[2]; 25g/T", "value": "+1.2%"}, {"measurement": "feed efficiency (in words)", "setting": "[2]; Table V", "value": "moderate improvements in feed efficiencies"}, {"measurement": "growth rate (in words)", "setting": "[2]; Table V", "value": "slight improvements in growth rates"}]}
